The source of these data is ChEMBL document CHEMBL1671790, “A new β-carbonic anhydrase from Brucella suis, its cloning, characterization, and inhibition with sulfonamides and sulfamates, leading to impaired pathogen growth” (Bioorg Med Chem, 2011).

Data set [1] concerns Brucella suis.
Data set [2] has as its system Brucella suis. This is another data set of the same source.
Data set [3] concerns Helicobacter pylori. As to the kind of experiment: Activity at Helicobacter pylori beta-carbonic anhydrase by spectrophotometry at pH 8.3.
Data set [4] has as its system Brucella suis. The data set is described as follows: Ratio of kcat to Km for Brucella suis carbonic anhydrase I.
The test system of data set [5] is Brucella suis. As to the kind of experiment: Ratio of kcat to Km for Brucella suis carbonic anhydrase II.
Data set [6] deals with Helicobacter pylori. As to the kind of experiment: Ratio of kcat to Km for Helicobacter pylori beta-carbonic anhydrase.
The subject of data set [7] is O=C=O. The data set is described as follows: Activity at human carbonic anhydrase II by spectrophotometry at pH 7.5.
In data set [8] the test system is O=C=O. As to the kind of experiment: Ratio of kcat to Km for human carbonic anhydrase II.
The test system of data set [9] is O=C=O. The note with it: Homo sapiens.
Data set [10] concerns O=C=O. The data set is described as follows: Ratio of kcat to Km for human carbonic anhydrase I.

Sequence of Carbonic anhydrase 1 (Homo sapiens), P00915 (P00915 whole entry): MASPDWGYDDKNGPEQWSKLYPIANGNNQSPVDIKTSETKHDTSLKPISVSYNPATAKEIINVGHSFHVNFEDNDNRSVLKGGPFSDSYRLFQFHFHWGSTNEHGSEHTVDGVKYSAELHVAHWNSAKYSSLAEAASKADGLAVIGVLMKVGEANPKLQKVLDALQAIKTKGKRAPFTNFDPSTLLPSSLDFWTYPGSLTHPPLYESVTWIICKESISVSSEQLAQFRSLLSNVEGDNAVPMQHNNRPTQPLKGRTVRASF

Consider `O=C=O`, for which the kcat was determined as 6.4 ×10⁵ /s in the data set with Brucella suis [1], 1.1 ×10⁶ /s in the data set with Brucella suis [2] and 7.1 ×10⁵ /s in the data set on Helicobacter pylori [3]. In addition, the kcat/Km was determined as 3.9 ×10⁷ /M/s in the data set on Brucella suis [4], 8.9 ×10⁷ /M/s in the data set with Brucella suis [5] and 4.8 ×10⁷ /M/s in the data set on Helicobacter pylori [6].

“Carbonic anhydrase 2 (Homo sapiens) (from UniProt P00918)”: the kcat in the data set with O=C=O [7] was found to be 1.4 ×10⁶ /s. Also, the kcat/Km in the data set with O=C=O [8] was 1.5 ×10⁸ /M/s.

“Carbonic anhydrase 1 (Homo sapiens), P00915”: in the data set with O=C=O [9], the kcat came out at 2 ×10⁵ /s. In the data set on O=C=O [10], the kcat/Km amounted to 5 ×10⁷ /M/s.
